# Reference: US20230210853A1 (Halia Therapeutics, Inc., priority 2020, published 2023)
# Molecular target: T1, full-length recombinant human NEK7 (Homo sapiens, UniProt Q8TDX7)
# T1 construct: full-length recombinant human NEK7; GST (N); purchased SignalChem N09-10G; host or cells: Sf9 insect cells (baculovirus)
# Test: NEK7 enzymatic assay ([33P]-ATP, casein substrate)
# Assay type: biochemical
# Conditions: Table 2e; recombinant human NEK7, casein substrate
# Summary of the method: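 Serially diluted compounds (10 μM down to 0.5 nM, 3-fold) were preincubated 20 min at room temperature with N-terminal GST-NEK7 from Sf9 cells and casein in pH 7.5 Hepes/MgCl2/EGTA/Brij35/DTT buffer containing 1% DMSO. [33P]-ATP then started a 2 h room-temperature reaction, stopped by spotting onto P81 paper. IC50 came from percent activity remaining versus vehicle.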
# T1 sequence (Q8TDX7 whole entry): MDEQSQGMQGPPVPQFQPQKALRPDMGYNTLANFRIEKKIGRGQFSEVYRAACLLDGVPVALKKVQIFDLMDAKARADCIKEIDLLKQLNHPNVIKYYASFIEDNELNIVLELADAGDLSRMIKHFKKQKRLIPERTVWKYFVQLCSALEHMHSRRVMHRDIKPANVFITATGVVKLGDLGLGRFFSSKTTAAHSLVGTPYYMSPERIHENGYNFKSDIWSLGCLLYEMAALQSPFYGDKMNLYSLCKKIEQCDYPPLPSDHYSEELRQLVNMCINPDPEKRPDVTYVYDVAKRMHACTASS
row,IC50,SMILES
1,> 1500 nM,"O=C(Nc1ccc(CN2CCOCC2)c(F)c1)Nc1ccc(Oc2ccnc3[nH]cc(Cl)c23)cc1F [Ie-2, 1-(4-((3-chloro-1H-pyrrolo[2,3-b]pyridin-4-yl)oxy)-2-fluorophenyl)-3-(3-fluoro-4-(morpholinomethyl)phenyl)urea]"
2,501 to 1500 nM,"Cc1cn(-c2cc(NC(=O)Nc3ccc(Oc4ccnc5[nH]cc(Cl)c45)cc3F)cc(C(F)(F)F)c2)cn1 [Ie-3, 1-(4-((3-Chloro-1H-pyrrolo[2,3-b]pyridin-4-yl)oxy)-2-fluorophenyl)-3-(3-(4-methyl-1H-1-imidazol-1-yl)-5-(TRIFLUOROMETHYL)phenyl)urea]"
3,> 1500 nM,"O=C(Nc1ccc(CN2CCOCC2)c(C(F)(F)F)c1)Nc1ccc(Oc2ccnc3[nH]cc(Cl)c23)cc1F [Ie-4, 1-(4-((3-Chloro-1H-pyrrolo[2,3-b]pyridin-4-yl)oxy)-2-fluorophenyl)-3-(4-(morpholinomethyl)-3-(trifluoromethyl)phenyl)UR EA]"
4,> 1500 nM,"CN1CCN(Cc2ccc(NC(=O)Nc3ccc(Oc4ccnc5[nH]cc(Cl)c45)cc3F)cc2F)CC1 [Ie-5, 1-(4-((3-chloro-1H-pyrrolo[2,3-b]pyridin-4-yl)oxy)-2-fluorophenyl)-3-(3-fluoro-4-((4-methylpiperazin-1-yl)methyl)phenyl)urea]"
5,> 1500 nM,"CN1CCN(c2cc(NC(=O)Nc3ccc(Oc4ccnc5[nH]cc(Cl)c45)cc3F)cc(C(F)(F)F)c2)CC1 [Ie-6, 1-(4-((3-chloro-1H-pyrrolo[2,3-b]pyridin-4-yl)oxy)-2-fluorophenyl)-3-(3-(4-methylpiperazin-1-yl)-5-(trifluoromethyl)phenyl)urea]"
6,> 1500 nM,"CN(C)Cc1ccc(NC(=O)Nc2ccc(Oc3ccnc4[nH]cc(Cl)c34)cc2F)cc1C(F)(F)F [Ie-7, 1-(4-((3-chloro-1H-pyrrolo[2,3-b]pyridin-4-yl)oxy)-2-fluorophenyl)-3-(4-((dimethylamino)methyl)-3-(trifluoromethyl)phenyl)urea]"
7,> 1500 nM,"CN(C)C1CN(Cc2ccc(NC(=O)Nc3ccc(Oc4ccnc5[nH]cc(Cl)c45)cc3F)cc2C(F)(F)F)C1 [Ie-8, 1-(4-((3-chloro-1H-pyrrolo[2,3-b]pyridin-4-yl)oxy)-2-fluorophenyl)-3-(4-((3-(dimethylamino)azetidin-1-yl)methyl)-3-(trifluoromethyl)phenyl)urea]"
8,301 to 500 nM,"CC(C)N1CCN(Cc2ccc(NC(=O)Nc3ccc(Oc4ccnc5[nH]cc(Cl)c45)cc3F)cc2C(F)(F)F)CC1 [Ie-10, 1-(4-((3-chloro-1H-pyrrolo[2,3-b]pyridin-4-yl)oxy)-2-fluorophenyl)-3-(4-((4-isopropylpiperazin-1-yl)methyl)-3-(trifluoromethyl)phenyl)urea]"
9,> 1500 nM,"O=C(Nc1ccc(CN2CCN(C3CC3)CC2)c(C(F)(F)F)c1)Nc1ccc(Oc2ccnc3[nH]cc(Cl)c23)cc1F [Ie-11, 1-(4-((3-chloro-1H-pyrrolo[2,3-b]pyridin-4-yl)oxy)-2-fluorophenyl)-3-(4-((4-cyclopropylpiperazin-1-yl)methyl)-3-(trifluoromethyl)phenyl)urea]"
10,> 1500 nM,"CN1CCN(Cc2ccc(NC(=O)Nc3ccc(Oc4ccnc5[nH]cc(Cl)c45)cc3F)cc2Cl)CC1 [Ie-12, 1-(4-((3-chloro-1H-pyrrolo[2,3-b]pyridin-4-yl)oxy)-2-fluorophenyl)-3-(3-chloro-4-((4-methylpiperazin-1-yl)methyl)phenyl)urea]"
11,501 to 1500 nM,"CC(c1ccc(NC(=O)Nc2ccc(Oc3ccnc4[nH]cc(Cl)c34)cc2F)cc1C(F)(F)F)N1CCN(C)CC1 (stereo not shown) [Ie-13, 1-(4-((3-chloro-1H-pyrrolo[2,3-b]pyridin-4-yl)oxy)-2-fluorophenyl)-3-(4-(1-(4-methylpiperazin-1-yl)ethyl)-3-(trifluoromethyl)phenyl)urea]"
12,> 1500 nM,"CN1CCN(c2ccc(NC(=O)Nc3ccc(Oc4ccnc5[nH]cc(Cl)c45)cc3F)cc2C(F)(F)F)CC1 [Ie-14, 1-(4-((3-chloro-1H-pyrrolo[2,3-b]pyridin-4-yl)oxy)-2-fluorophenyl)-3-(4-(4-methylpiperazin-1-yl)-3-(trifluoromethyl)phenyl)urea]"
13,> 1500 nM,"CN1CCN(C(=O)c2ccc(NC(=O)Nc3ccc(Oc4ccnc5[nH]cc(Cl)c45)cc3F)cc2C(F)(F)F)CC1 [Ie-15, 1-(4-((3-chloro-1H-pyrrolo[2,3-b]pyridin-4-yl)oxy)-2-fluorophenyl)-3-(4-(4-methylpiperazine-1-carbonyl)-3-(trifluoromethyl)phenyl)urea]"
14,> 1500 nM,"CN1CCCN(Cc2ccc(NC(=O)Nc3ccc(Oc4ccnc5[nH]cc(Cl)c45)cc3F)cc2C(F)(F)F)CC1 [Ie-17, 1-(4-((3-chloro-1H-pyrrolo[2,3-b]pyridin-4-yl)oxy)-2-fluorophenyl)-3-(4-((4-methyl-1,4-diazepan-1-yl)methyl)-3-(trifluoromethyl)phenyl)urea]"
15,> 1500 nM,"CN1C[C@@H]2CN(Cc3ccc(NC(=O)Nc4ccc(Oc5ccnc6[nH]cc(Cl)c56)cc4F)cc3C(F)(F)F)C[C@@H]2C1 [Ie-18, 1-(4-((3-chloro-1H-pyrrolo[2,3-b]pyridin-4-yl)oxy)-2-fluorophenyl)-3-(4-(((3aR,6aS)-5-methylhexahydropyrrolo[3,4-c]pyrrol-2(1H)-yl)methyl)-3-(trifluoromethyl)phenyl)urea]"
16,501 to 1500 nM,"CN1CCC(Cc2ccc(NC(=O)Nc3ccc(Oc4ccnc5[nH]cc(Cl)c45)cc3F)cc2C(F)(F)F)CC1 [Ie-19, 1-(4-((3-chloro-1H-pyrrolo[2,3-H]pyridin-4-yl)oxy)-2-fluorophenyl)-3-(4-((1-methylpiperidin-4-yl)methyl)-3-(trifluoromethyl)phenyl)urea]"
17,> 1500 nM,"CN(C)C1CCN(Cc2ccc(NC(=O)Nc3ccc(Oc4ccnc5[nH]cc(Cl)c45)cc3F)cc2C(F)(F)F)C1 (stereo not shown) [Ie-21, 1-(4-((3-chloro-1H-pyrrolo[2,3-b]pyridin-4-yl)oxy)-2-fluorophenyl)-3-(4-((3-(dimethylamino)pyrrolidin-1-yl)methyl)-3-(trifluoromethyl)phenyl)urea]"

# Same assay, conditions: Table 2d; recombinant human NEK7, casein substrate
row,IC50,SMILES
1,> 1500 nM,"COc1cc(CN2CCN(C)CC2)ccc1NC(=O)Nc1ccc(-c2cn(C3CC3)c3ncnc(N)c23)cc1F [Id-52, 1-(4-(4-amino-7-cyclopropyl-7H-pyrrolo[2,3-d]pyrimidin-5-yl)-2-fluorophenyl)-3-(2-methoxy-4-((4-methylpiperazin-1-yl)methyl)phenyl)urea]"
2,> 1500 nM,"CN1CCN(Cc2ccc(NC(=O)Nc3ccc(-c4cn(C5CC5)c5ncnc(N)c45)cc3F)cc2C#N)CC1 [Id-53, 1-(4-(4-amino-7-cyclopropyl-7H-pyrrolo[2,3-d]pyrimidin-5-yl)-2-fluorophenyl)-3-(3-cyano-4-((4-methylpiperazin-1-yl)methyl)phenyl)urea]"
3,< 150 nM,"CCN1CCN(Cc2ccc(NC(=O)Nc3ccc(-c4cn(C5CC5)c5ncnc(N)c45)cc3Cl)cc2C(F)(F)F)CC1 [Id-54, 1-(4-(4-amino-7-cyclopropyl-7H-pyrrolo[2,3-d]pyrimidin-5-yl)-2-chlorophenyl)-3-(4-((4-ethylpiperazin-1-yl)methyl)-3-(trifluoromethyl)phenyl)urea]"
4,> 1500 nM,"Cc1cc(NC(=O)Nc2ccc(-c3nn(C4CC4)c4ccnc(N)c34)cc2F)ccc1N1CCOCC1 [Id-55, 1-(4-(4-amino-1-cyclopropyl-1H-pyrazolo[4,3-c]pyridin-3-yl)-2-fluorophenyl)-3-(3-methyl-4-morpholino-phenyl)urea]"
5,> 1500 nM,CN1CCN(Cc2ccc(NC(=O)Nc3ccc(-c4cn(C5CC5)c5ncnc(N)c45)cc3F)cc2)CC1 [Id-56]
6,> 1500 nM,CCN1CCN(Cc2ccc(NC(=O)Nc3ccc(-c4cn(C5CC5)c5ncnc(N)c45)cc3F)cc2)CC1 [Id-57]
7,> 1500 nM,CN1CCN(Cc2ccc(NC(=O)Nc3ccc(-c4cn(C5CC5)c5ncnc(N)c45)cc3F)cc2C(F)F)CC1 [Id-58]
8,> 1500 nM,CCN1CCN(Cc2ccc(NC(=O)Nc3ccc(-c4cn(C5CC5)c5ncnc(N)c45)cc3F)cc2C(F)F)CC1 [Id-59]
9,> 1500 nM,CN1CCC(Oc2ncc(NC(=O)Nc3ccc(-c4cn(C5CC5)c5ncnc(N)c45)cc3F)cc2C(F)(F)F)CC1 [Id-60]
10,301 to 500 nM,Nc1ncnc2c1c(-c1ccc(NC(=O)Nc3ccc(CN4CCN(C5CC5)CC4)c(C(F)(F)F)c3)c(F)c1)cn2C1CC1 [Id-61]
11,< 150 nM,CC(C)N1CCN(Cc2ccc(NC(=O)Nc3ccc(-c4cn(C5CC5)c5ncnc(N)c45)cc3F)cc2C(F)(F)F)CC1 [Id-62]
12,< 150 nM,CN1CC2CC1CN2Cc1ccc(NC(=O)Nc2ccc(-c3cn(C4CC4)c4ncnc(N)c34)cc2F)cc1C(F)(F)F (stereo not shown) [Id-63]
13,501 to 1500 nM,CN1CCN(Cc2ccc(NC(=O)Nc3ccc(-c4cn(C5CC5)c5ncnc(N)c45)cc3F)c(F)c2)CC1 [Id-64]
14,< 150 nM,"Nc1ncnc2c1c(-c1ccc(NC(=O)Nc3ccc(CN4CCNCC45CC5)c(C(F)(F)F)c3)c(F)c1)cn2C1CC1 [Id-65, 1-(4-((4,7-diazaspiro[2,5]octan-4-yl)methyl)-3-(trifluoromethyl)phenyl)-3-(4-(4-amino-7-cyclopropyl-7H-pyrrolo[2,3-d]pyrimidin-5-yl)-2-fluorophenyl)urea]"
15,< 150 nM,CN1CCN(Cc2ccc(NC(=O)Nc3ncc(-c4cn(C5CC5)c5ncnc(N)c45)cc3F)cc2C(F)(F)F)CC1 [Id-66]
16,< 150 nM,CN1CCN(Cc2ncc(NC(=O)Nc3ccc(-c4cn(C5CC5)c5ncnc(N)c45)cc3F)cc2C(F)(F)F)CC1 [Id-67]
17,< 150 nM,CN(C)C1CCN(Cc2ccc(NC(=O)Nc3ccc(-c4cn(C5CC5)c5ncnc(N)c45)cc3F)cc2C(F)(F)F)CC1 [Id-68]
18,151 to 300 nM,CC1CN(C)CCN1Cc1ccc(NC(=O)Nc2ccc(-c3cn(C4CC4)c4ncnc(N)c34)cc2F)cc1C(F)(F)F (stereo not shown) [Id-69]
19,< 150 nM,CN1CCN(Cc2ccc(NC(=O)Nc3ccc(-c4cn(CCO)c5ncnc(N)c45)cc3F)cc2C(F)(F)F)CC1 [Id-70]
20,< 150 nM,Nc1ncnc2c1c(-c1ccc(NC(=O)Nc3ccc(CN4CCN(CCO)CC4)c(C(F)F)c3)c(F)c1)cn2C1CC1 [Id-71]
